Test [1] in a line: Inhibitory activity towards group 2 metabotropic glutamate receptor by displacement of ACPD-sensitive [3H]- glutamate in rat forebrain membrane. The test is classed as cell membranes.
The target of test [2] is Glutamate receptor ionotropic, kainate. The test can be described thus: Binding affinity against Ionotropic glutamate receptor using [3H]-Kainate displacement from rat forebrain preparations.
Test [3] addresses Glutamate receptor ionotropic, kainate 3 (Rattus norvegicus, UniProt P42264). Nature of the test: Binding affinity against Ionotropic glutamate receptor using ACPD sensitive [3H]- glutamate displacement from rat forebrain preparations.
In test [4] the target is Glutamate receptor ionotropic, AMPA (Rattus norvegicus, UniProt P19490+P19491+P19492+P19493). The test can be described thus: Binding affinity against Ionotropic glutamate receptor using [3H]-AMPA displacement from rat forebrain preparations.
In test [5] the target is Metabotropic glutamate receptor 2 (Homo sapiens, UniProt Q14416). Nature of the test: Tested for […] in non-neuronal cells (RGT) expressing human Metabotropic glutamate receptor 2 by measuring ACPD (3 uM) induced inhibition of forskolin (15 uM)-stimulated cAMP formation. It counts as functional, cell-based.
The target in test [6] is Metabotropic glutamate receptor 7 (Homo sapiens, UniProt Q14831). The test can be described thus: Tested for […] in non-neuronal cells (RGT) expressing human mGlu7a receptor by measuring L-AP4 (1000 uM of forskolin (15 uM)-stimulated cAMP formation. It counts as functional, cell-based.
Test [7] addresses Metabotropic glutamate receptor 3 (Homo sapiens, UniProt Q14832). The test can be described thus: Tested for […] in non-neuronal cells (RGT) expressing human Metabotropic glutamate receptor 3 by measuring ACPD (3 uM) induced inhibition of forskolin (15 uM)-stimulated cAMP formation. The test is classed as functional, cell-based.
Test [8] deals with Metabotropic glutamate receptor 1 (Homo sapiens, UniProt Q13255). The test can be described thus: Tested for […] in non-neuronal cells (RGT) expressing human Metabotropic glutamate receptor 1 by measuring ACPD (100 uM)-stimulated phosphoinositide hydrolysis. The test is classed as functional, cell-based.
Test [9] deals with Metabotropic glutamate receptor 5 (Homo sapiens, UniProt P41594). Nature of the test: Tested for […] in non-neuronal cells (RGT) expressing human Metabotropic glutamate receptor 5 by measuring ACPD (100 uM)-stimulated phosphoinositide hydrolysis. The test is classed as functional, cell-based.
In test [10] the target is Metabotropic glutamate receptor 4 (Homo sapiens, UniProt Q14833). The test can be described thus: Tested for […] in non-neuronal cells (RGT) expressing human Metabotropic glutamate receptor 4 by measuring L-AP4 (3 uM) induced inhibition of forskolin (15 uM)-stimulated cAMP formation. It counts as functional, cell-based.
For test [11], the target named is Metabotropic glutamate receptor 8 (Homo sapiens, UniProt O00222). Nature of the test: Tested for […] in non-neuronal cells (RGT) expressing human Metabotropic glutamate receptor 8 by measuring L-AP4 (0.3 uM of forskolin) (15 uM)-stimulated cAMP formation. It counts as functional, cell-based.

Sequence of Glutamate receptor ionotropic, kainate 3 (P42264 whole entry): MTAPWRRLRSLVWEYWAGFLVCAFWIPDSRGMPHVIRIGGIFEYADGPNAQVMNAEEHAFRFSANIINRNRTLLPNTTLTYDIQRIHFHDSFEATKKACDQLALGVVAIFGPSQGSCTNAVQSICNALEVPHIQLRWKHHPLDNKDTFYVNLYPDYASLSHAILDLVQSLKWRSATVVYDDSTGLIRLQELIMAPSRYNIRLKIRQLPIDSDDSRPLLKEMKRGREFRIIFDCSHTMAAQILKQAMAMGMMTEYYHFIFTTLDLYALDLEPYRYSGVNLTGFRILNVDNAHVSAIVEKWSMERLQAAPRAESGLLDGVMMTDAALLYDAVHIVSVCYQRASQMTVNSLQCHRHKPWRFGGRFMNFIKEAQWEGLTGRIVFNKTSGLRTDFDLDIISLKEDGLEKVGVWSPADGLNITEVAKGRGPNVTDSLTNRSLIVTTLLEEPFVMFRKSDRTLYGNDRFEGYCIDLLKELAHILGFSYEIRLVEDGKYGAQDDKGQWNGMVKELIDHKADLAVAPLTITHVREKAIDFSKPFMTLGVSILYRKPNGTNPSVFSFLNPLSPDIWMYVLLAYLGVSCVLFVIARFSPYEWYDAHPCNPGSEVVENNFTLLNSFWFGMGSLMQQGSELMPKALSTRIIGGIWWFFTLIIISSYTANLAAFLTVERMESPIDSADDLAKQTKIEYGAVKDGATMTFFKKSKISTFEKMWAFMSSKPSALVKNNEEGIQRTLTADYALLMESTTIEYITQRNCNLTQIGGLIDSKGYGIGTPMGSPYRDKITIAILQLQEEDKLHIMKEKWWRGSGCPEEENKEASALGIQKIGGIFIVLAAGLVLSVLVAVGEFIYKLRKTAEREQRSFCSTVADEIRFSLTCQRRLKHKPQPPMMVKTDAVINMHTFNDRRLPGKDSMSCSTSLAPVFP
Sequence of Metabotropic glutamate receptor 7 (Q14831 whole entry): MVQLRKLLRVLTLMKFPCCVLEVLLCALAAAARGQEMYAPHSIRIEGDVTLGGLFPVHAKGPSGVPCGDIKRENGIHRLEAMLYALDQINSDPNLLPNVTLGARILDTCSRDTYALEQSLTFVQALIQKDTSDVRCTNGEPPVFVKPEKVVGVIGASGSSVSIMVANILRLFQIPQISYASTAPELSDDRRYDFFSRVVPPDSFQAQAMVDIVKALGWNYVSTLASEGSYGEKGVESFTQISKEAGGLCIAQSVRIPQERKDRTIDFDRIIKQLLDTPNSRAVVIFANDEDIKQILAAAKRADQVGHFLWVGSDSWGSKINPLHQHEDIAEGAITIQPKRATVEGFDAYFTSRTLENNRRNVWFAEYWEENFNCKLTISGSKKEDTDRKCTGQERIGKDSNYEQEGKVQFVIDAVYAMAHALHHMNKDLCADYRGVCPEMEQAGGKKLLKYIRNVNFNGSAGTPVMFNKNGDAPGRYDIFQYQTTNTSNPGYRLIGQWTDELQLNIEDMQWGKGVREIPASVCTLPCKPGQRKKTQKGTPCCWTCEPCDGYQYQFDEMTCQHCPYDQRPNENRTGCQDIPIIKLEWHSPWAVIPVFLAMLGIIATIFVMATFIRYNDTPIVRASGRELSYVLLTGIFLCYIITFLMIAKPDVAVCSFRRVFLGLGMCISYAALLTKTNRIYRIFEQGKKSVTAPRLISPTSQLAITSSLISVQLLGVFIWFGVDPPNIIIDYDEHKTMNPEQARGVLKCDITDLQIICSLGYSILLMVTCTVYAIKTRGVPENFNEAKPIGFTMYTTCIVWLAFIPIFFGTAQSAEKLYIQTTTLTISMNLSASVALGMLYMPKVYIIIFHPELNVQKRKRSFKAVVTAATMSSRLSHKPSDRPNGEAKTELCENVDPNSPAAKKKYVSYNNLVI
Sequence of Metabotropic glutamate receptor 3 (Q14832 whole entry): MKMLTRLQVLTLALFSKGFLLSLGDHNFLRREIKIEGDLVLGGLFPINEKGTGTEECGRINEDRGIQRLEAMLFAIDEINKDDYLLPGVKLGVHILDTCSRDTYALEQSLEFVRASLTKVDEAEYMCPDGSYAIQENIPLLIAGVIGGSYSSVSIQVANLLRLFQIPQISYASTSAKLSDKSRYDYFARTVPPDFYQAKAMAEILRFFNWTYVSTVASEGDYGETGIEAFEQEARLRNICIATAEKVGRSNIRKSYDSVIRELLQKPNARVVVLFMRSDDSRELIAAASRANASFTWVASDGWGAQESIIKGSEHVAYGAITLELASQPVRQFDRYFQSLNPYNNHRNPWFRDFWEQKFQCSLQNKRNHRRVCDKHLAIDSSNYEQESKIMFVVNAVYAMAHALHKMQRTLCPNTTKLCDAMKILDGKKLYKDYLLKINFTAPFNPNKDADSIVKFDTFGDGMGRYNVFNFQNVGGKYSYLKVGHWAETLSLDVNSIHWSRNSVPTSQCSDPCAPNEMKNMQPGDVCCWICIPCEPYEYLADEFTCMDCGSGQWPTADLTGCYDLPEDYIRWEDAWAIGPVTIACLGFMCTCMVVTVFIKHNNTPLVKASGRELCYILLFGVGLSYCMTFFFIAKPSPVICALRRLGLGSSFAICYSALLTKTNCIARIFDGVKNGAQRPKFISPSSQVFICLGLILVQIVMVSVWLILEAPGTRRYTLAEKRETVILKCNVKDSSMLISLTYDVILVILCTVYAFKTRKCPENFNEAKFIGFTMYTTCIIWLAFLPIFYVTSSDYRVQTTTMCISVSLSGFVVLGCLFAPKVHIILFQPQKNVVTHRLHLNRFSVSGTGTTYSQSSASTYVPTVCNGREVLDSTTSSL
Sequence of Metabotropic glutamate receptor 2 (Q14416 whole entry): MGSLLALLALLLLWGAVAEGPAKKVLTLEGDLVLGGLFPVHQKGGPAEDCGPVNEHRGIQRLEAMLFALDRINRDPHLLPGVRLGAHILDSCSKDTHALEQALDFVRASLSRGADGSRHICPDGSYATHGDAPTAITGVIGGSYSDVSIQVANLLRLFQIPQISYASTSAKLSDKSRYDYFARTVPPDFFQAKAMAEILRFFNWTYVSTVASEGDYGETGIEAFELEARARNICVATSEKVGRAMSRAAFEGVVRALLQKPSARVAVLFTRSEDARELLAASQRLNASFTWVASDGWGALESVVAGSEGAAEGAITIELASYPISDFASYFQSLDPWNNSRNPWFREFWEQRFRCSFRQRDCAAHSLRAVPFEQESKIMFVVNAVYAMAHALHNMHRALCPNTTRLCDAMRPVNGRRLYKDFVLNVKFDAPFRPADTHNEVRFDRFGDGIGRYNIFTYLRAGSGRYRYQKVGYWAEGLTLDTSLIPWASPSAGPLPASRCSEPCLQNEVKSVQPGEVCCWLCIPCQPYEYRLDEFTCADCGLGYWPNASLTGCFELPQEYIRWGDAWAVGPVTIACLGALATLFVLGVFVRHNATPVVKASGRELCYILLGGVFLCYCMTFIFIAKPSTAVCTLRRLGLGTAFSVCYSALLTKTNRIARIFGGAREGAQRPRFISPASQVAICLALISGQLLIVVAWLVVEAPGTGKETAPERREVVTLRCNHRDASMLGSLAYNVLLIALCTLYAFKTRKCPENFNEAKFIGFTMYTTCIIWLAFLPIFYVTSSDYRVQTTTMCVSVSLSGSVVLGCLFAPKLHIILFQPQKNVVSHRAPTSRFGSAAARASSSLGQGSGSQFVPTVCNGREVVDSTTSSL
Sequence of Metabotropic glutamate receptor 5 (P41594 whole entry): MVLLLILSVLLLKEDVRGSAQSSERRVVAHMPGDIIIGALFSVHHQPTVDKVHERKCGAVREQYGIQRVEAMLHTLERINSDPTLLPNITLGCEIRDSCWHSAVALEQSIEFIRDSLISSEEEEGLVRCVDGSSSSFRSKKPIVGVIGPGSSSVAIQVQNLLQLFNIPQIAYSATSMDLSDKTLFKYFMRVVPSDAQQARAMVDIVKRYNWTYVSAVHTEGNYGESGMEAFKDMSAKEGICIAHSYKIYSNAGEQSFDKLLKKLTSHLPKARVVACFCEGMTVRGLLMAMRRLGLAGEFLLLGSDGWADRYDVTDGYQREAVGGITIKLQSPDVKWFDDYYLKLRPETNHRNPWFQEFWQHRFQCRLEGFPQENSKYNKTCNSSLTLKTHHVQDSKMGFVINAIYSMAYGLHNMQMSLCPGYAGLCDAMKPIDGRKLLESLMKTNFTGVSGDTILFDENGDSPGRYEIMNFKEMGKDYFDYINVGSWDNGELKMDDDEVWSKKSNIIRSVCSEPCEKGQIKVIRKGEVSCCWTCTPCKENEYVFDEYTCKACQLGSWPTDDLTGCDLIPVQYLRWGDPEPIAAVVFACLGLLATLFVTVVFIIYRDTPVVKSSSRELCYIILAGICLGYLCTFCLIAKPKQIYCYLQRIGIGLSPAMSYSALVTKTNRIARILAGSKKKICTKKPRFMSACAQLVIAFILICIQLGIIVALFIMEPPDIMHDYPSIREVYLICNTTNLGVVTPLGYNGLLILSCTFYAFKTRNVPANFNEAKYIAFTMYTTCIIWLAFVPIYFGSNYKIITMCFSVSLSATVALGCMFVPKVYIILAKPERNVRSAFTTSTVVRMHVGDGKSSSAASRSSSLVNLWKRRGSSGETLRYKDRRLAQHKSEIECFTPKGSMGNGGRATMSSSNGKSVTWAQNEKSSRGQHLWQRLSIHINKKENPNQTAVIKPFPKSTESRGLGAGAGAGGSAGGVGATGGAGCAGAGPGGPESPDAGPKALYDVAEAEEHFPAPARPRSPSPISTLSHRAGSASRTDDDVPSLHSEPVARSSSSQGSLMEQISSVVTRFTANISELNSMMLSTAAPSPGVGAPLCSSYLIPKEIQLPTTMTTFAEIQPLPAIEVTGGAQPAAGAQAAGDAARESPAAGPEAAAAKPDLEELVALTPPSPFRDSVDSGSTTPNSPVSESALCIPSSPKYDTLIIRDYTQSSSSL

The compound `COc1cccc(C[C@@H](C[C@H](N)C(=O)O)C(=O)O)c1` yielded an IC50 in test [1] of 9.28 µM.

For the compound `N[C@@H](C[C@H](CCCCCc1ccccc1)C(=O)O)C(=O)O`, in test [1], the half-inhibitory concentration (IC50) came out at 2.49 µM.

The compound `N[C@@H](C[C@@H](CCCCc1ccccc1)C(=O)O)C(=O)O` yielded an IC50 in test [1] above 100 µM.

`N[C@@H](C[C@H](Cc1ccc2ccccc2c1)C(=O)O)C(=O)O`: the IC50 in test [1] worked out at 3.33 µM.

`N[C@@H](C[C@H](CCCCC(c1ccccc1)c1ccccc1)C(=O)O)C(=O)O` had an IC50 in test [1] of 3.4 µM.

In test [1], `N[C@@H](C[C@@H](CCCc1ccccc1)C(=O)O)C(=O)O` showed an IC50 of 21.1 µM.

`Cc1ccc(C[C@@H](C[C@H](N)C(=O)O)C(=O)O)cc1` returned an IC50 in test [1] of 4.6 µM.

As for `N[C@@H](C[C@H](CCC(c1ccccc1)c1ccccc1)C(=O)O)C(=O)O`, the IC50 in test [2] came out at 39.3 µM; in test [3], 1.16 µM; in [4], 14.5 µM.

Turning to `N[C@@H](C[C@H](CCCc1ccccc1)C(=O)O)C(=O)O`, the IC50 in [2] turned out to be 9.2 µM; in [1], 1.84 µM; in test [3] it was 1.84 µM; in test [4], 34 µM.

As for `N[C@@H](C[C@H](Cc1ccc(C(F)(F)F)cc1)C(=O)O)C(=O)O`, in test [1], the IC50 was 3.16 µM.

The compound `N[C@@H](C[C@H](CC1CCC(c2ccccc2)(c2ccccc2)CC1)C(=O)O)C(=O)O` registered an IC50 in test [1] of 1.4 µM.

The compound `N[C@@H](C[C@H](CC1CCC(c2ccccc2)CC1)C(=O)O)C(=O)O` (some centres not stated) came in with an IC50 in test [1] of 3.2 µM.

Regarding `N[C@@H](C[C@H](CCCCc1ccccc1)C(=O)O)C(=O)O`, in test [1], the IC50 was 4.69 µM. This IC50 and that of the compound before are within 1.5-fold of each other.

`N[C@@H](C[C@H](CCCC(c1ccccc1)c1ccccc1)C(=O)O)C(=O)O`: the IC50 in [5] is 50 µM; in test [6] it was above 300 µM; in test [7], 30 µM; in test [8] it was above 300 µM; in test [9] it was above 300 µM; in test [10], above 300 µM. Moreover, the IC50 was above 300 µM in test [11] and above 100 µM in [4].

As to `N[C@@H](C[C@H](CC(c1ccccc1)c1ccccc1)C(=O)O)C(=O)O`, the 50% inhibitory concentration (IC50) in [5] is 18 µM; in test [2], above 100 µM; in test [6] it was above 300 µM; in test [3] it was 0.38 µM; in [7] it was 6.1 µM; in test [8], above 300 µM. The IC50 in test [9] was above 300 µM; in [10] it was above 300 µM; in test [11] it was above 300 µM; in [4], above 100 µM.

Turning to `N[C@@H](C[C@H](Cc1ccccc1)C(=O)O)C(=O)O`, in test [1], the IC50 was 8.99 µM.

Consider `N[C@@H](C[C@H](CCc1ccccc1)C(=O)O)C(=O)O`, for which the IC50 in test [1] was 4.65 µM. This IC50 lies about 1.9-fold lower than the previous one.

Regarding `N[C@@H](C[C@@H](Cc1ccc(C(F)(F)F)cc1)C(=O)O)C(=O)O` (single isomer, unassigned), the IC50 in test [1] is above 100 µM.

With `N[C@@H](C[C@@H](Cc1ccc2ccccc2c1)C(=O)O)C(=O)O` (single isomer, unassigned), in [1], the IC50 came out at 8.82 µM.

The compound `Cc1ccc(C[C@H](C[C@H](N)C(=O)O)C(=O)O)cc1` (single isomer, unassigned) registered an IC50 in test [1] of 7.85 µM. This IC50 and that of the compound before are within 1.5-fold of each other.

Turning to `N[C@@H](C[C@@H](CCc1ccccc1)C(=O)O)C(=O)O` (single isomer, unassigned), the IC50 in test [1] was 14.5 µM. Against the preceding compound, the IC50 is about 1.8-fold higher.

For the origin of these results see ChEMBL document CHEMBL1131280, “(2S,4S)-amino-4-(2,2-diphenylethyl)pentanedioic acid selective group 2 metabotropic glutamate receptor antagonist” (Bioorg Med Chem Lett, 1998).
